The assay relates to Human skin fibroblasts (BJ). In words: Immunofluorescence detection of neuronal cell marker antigens in induced human skin fibroblasts (CiNCs). The class given is cell-based. Here is the method: After 48 h of induction, the induction medium was replaced with a neuronal cell maturation medium to continue promoting further maturation of the CiNCs, and the neuronal cell maturation medium was replaced with a neuronal cell medium after 72 h for long-term culture.
Immunofluorescence detection of neuronal cell marker antigens was conducted on human skin fibroblasts and cells induced by neuronal cell induction (N2B27+10 μM Forskolin) for 48 h. The method included the following specific steps: human skin fibroblasts and F-48h cells in a culture plate were fixated with 4% paraformaldehyde (PFA) at room temperature for 30 min; the cells were washed with a blocking solution three times, 5 min in each time; the cells were permeabilized by 1% TritonX-100 for 15 min at room temperature; the cells were washed with the blocking solution three times again; non-specific sites were blocked with 5% donkey serum, and then blocked for 2 h at room temperature; the cells were washed three times with TBP (Tritonx-Bovine albumin-Phosphate Buffer Saline) for 5 min in each time; a primary antibody was added for incubation at 4° C. overnight; on a next day, the culture plate was placed at room temperature, rewarmed for 20 min, and then washed with TBP three times for 5 min in each time, a secondary antibody and a Hoechst mixture were added in the dark, and incubated at room temperature for 1 h; after washing three times with a TBP solution, fluorescence microscope observation and photographing experiment were conducted.

Experimental findings from patent US20240034991A1, “METHOD FOR EFFICIENTLY INDUCING REPROGRAMMING OF HUMAN CELL INTO NEURONAL CELL” (GUANGXI UNIVERSITY, priority 2022, published 2024) are described below.

With `Nc1ncnc2c1ncn2[C@@H]1O[C@@H]2COP(=O)(O)O[C@H]2[C@H]1O` [cAMP, cyclic Adenosine Monophosphate], the “Expression of neuronal cell marker antigens TUJ1, MAP2 and NeuN (immunofluorescence, FIG. 5)” value (shortened to “Expression”) (N2B27+KSR+10 μM compound) is “expressed neuronal cell marker antigens TUJ1, MAP2 and NeuN”. Regarding `C=C[C@@]1(C)CC(=O)[C@]2(O)[C@@]3(C)[C@@H](O)CCC(C)(C)[C@@H]3[C@H](O)[C@H](OC(C)=O)[C@@]2(C)O1` [Forskolin], the “TUJ1 positive rate of CiNCs” value (N2B27+KSR+10 μM Forskolin, 48 h after induction) is on record as 80%. For `C[S+]([O-])c1ccc(-c2nc(-c3ccncc3)c(-c3ccc(F)cc3)[nH]2)cc1` (stereo not shown) [SB203580], the “Expression” value (N2B27+KSR+5 μM compound) is “expressed neuronal cell marker antigens TUJ1, MAP2 and NeuN”.

In the case of `c1ccc2c(-c3cnn4cc(-c5ccc(N6CCNCC6)cc5)cnc34)ccnc2c1` [LDN193189], the “Expression” value (N2B27+KSR+5 μM compound) was “expressed neuronal cell marker antigens TUJ1, MAP2 and NeuN”.
